Experiment [1] concerns colorectal (HCT116 and SW620) cell line models. In words: MTS growth inhibition assay. Type of experiment: cell-based. The settings on record: 5-FU between 0 and 100 μmol/L; both colorectal cancer cell lines (HCT116 and SW620). How it is done: The Cell Titer AQueous MTS assay (Promega) is carried out according to the manufacturers guidelines. […] Fraction affected (FA) is calculated from the percent growth inhibition: FA=(100−% growth inhibition)/100.
Test compounds are evaluated for their antitumor activity in colorectal cancer cells using the MTS growth inhibition assay. HCT116 and SW620 cells are exposed to increasing concentrations of each agent for 72 hours and growth inhibition is directly compared to vehicle-treated controls. The NSCLC cell lines A549 and H1299 are exposed to increasing concentrations of each agent for 72 hours and growth inhibition is directly compared to vehicle-treated controls.
Simultaneous treatment with increasing concentrations of 5-FU and a test compound at fixed concentrations of 25 μmol/L is determined.
For orientation: Formazan colour is commonly taken as a measure of viable cells.

In experiment [2] the test system is colorectal (HCT116), breast (MCF-7) and non-small cell lung (H1299, A549, H358 and H460) cell line models. In words: Colony forming assay. Type of experiment: cell-based. The settings on record: FUdR between 0.5 and 2.5 μmol/L; all cell lines evaluated. The method, then:
Colony forming assay showing the ability of colon (SW620, HCT116), non-small cell lung (A549, H460, H1299 and H358) and breast (MCF7) cancer cells to survive and proliferate following transient 24 hour exposure to test compounds, FUdR and combinations are determined. Specifically, cells are seeded at densities between 50 and 100 cells/well in 24-well plates. Twenty-four hours later, cells are treated with increasing concentrations of a rtest compound, a fixed dose of FUdR and combinations of these. After 24 hours, drug is removed, cells are rinsed and allowed to outgrow for 10-14 days. At the conclusion of the outgrowth, cells are fixed in 60% ice cold methanol and stained with 0.1% crystal violet, scanned and counted. Data is presented as percentage of untreated controls (mean±SD). Fraction affected and combination indexes are calculated according to the method of Chou and Talalay where <1 is indicative of a synergistic drug interaction.
Colony forming assays are performed to evaluate the effectiveness of test compounds alone and in combination with the fluoropyrimidine thymidylate synthase (TS) inhibitor fluorodeoxyuridine (FUdR) at reducing cancer cell viability in colorectal (HCT116), breast (MCF-7) and non-small cell lung (H1299, A549, H358 and H460) cell line models. […]

On to `O=c1[nH]cc(F)c(=O)[nH]1` [5-FU, 5-fluorouracil], for which, in experiment [1], the growth inhibition result is “dose-dependent increases in growth inhibition”.

Consider `O=c1[nH]c(=O)n([C@H]2C[C@H](O)[C@@H](CO)O2)cc1F` [FUdR, fluorodeoxyuridine], for which the colonies formed entry in experiment [2] is given as “dose-dependent decreases in colonies formed”.
